Laboratory results as given in US20240327393A1 (SIRONAX LTD., priority 2021, published 2024).

system: HT-1080 (ATCC, CCL-121) cells; test: HT-1080 cell viability assay with ferroptosis inducer RSL3 (Cell Titer-Glo); format: cell-based; settings: Homo sapiens; HT-1080 cells treated with RSL3; 3-fold, 10-point dilution, 1.1 μM highest concentration; Table 2; read-out: EC50 (nM), ferroptosis inhibitory activity
Procedure, shortened: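 HT-1080 cells (6000 per well) were cultured overnight at 37 °C, then co-treated with RSL3 and compound in a 3-fold, 10-point series topping at 1.1 μM. Viability was read by CellTiter-Glo luminescence and normalized to untreated controls. EC50 came from a sigmoidal non-linear regression fit.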

Row | Compound | EC50 [nM]
1 | NC(=O)CCN1C(=O)COc2cc(Nc3ccc(N4CCC(C(F)(F)F)CC4)cc3)ccc21 [Compound 15, 3-(3-oxo-7-((4-(4-(trifluoromethyl)piperidin-1-yl)phenyl)amino)-2,3-dihydro-4H-benzo[b][1,4]oxazin-4-yl)propanamide] | 0.1 to 100
2 | CN1Cc2cc(Nc3ccc(N4C[C@H]5CC[C@@H]4C5)cc3)ccc2C1=O [Compound 245, 5-((4-((1R,4S)-2-azabicyclo[2.2.1]heptan-2-yl)phenyl)amino)-2-methylisoindolin-1-one] | 0.1 to 100
3 | c1ccc(Nc2ccc3c(c2)CCNC3)cc1 [Compound 104, N-phenyl-1,2,3,4-tetrahydroisoquinolin-6-amine] | 0.1 to 100
4 | Cc1cc(N2CC(C)OC(C)C2)ccc1Nc1ccc2c(c1)C(C)(C)C(=O)N2C (stereo not drawn) [Compound 438, 5-((4-(2,6-dimethylmorpholino)-2-methylphenyl)amino)-1,3,3-trimethylindolin-2-one] | 0.1 to 100
5 | CC(C)(C)c1ccc(Nc2ccc3oc(=O)ccc3c2)cc1 [Compound 120, 6-((4-(tert-butyl)phenyl)amino)-2H-chromen-2-one] | 0.1 to 100
6 | CN1C(=O)COc2cc(Nc3ccc(N4CCC(C(F)(F)F)CC4)c(F)c3)ccc21 [Compound 77, 7-((3-fluoro-4-(4-(trifluoromethyl)piperidin-1-yl)phenyl)amino)-4-methyl-2H-benzo[b][1,4]oxazin-3(4H)-one] | 0.1 to 100
7 | Cn1c(N)nc2cc(Nc3ccc(N4CCC(C(F)(F)F)CC4)cc3)ccc21 [Compound 370, 1-methyl-N^5-(4-(4-(trifluoromethyl)piperidin-1-yl)phenyl)-1H-benzo[d]imidazole-2,5-diamine] | 0.1 to 100
8 | Cn1cncc1CN1Cc2cc(Nc3ccc(N4CCC(C(F)(F)F)CC4)cc3)ccc2C1=O [Compound 248, 2-((1-methyl-1H-imidazol-5-yl)methyl)-5-((4-(4-(trifluoromethyl)piperidin-1-yl)phenyl)amino)isoindolin-1-one] | 0.1 to 100
9 | CN1C(=O)CCOc2cc(Nc3ccc(N4CCC(C(F)(F)F)CC4)cc3)ccc21 [Compound 3, 5-methyl-8-((4-(4-(trifluoromethyl)piperidin-1-yl)phenyl)amino)-2,3-dihydrobenzo[b][1,4]oxazepin-4(5H)-one] | 0.1 to 100
10 | COCCOc1ccc(Nc2ccc3c(c2)n(C)c(=O)n3C)cc1 [Compound 318, 5-((4-(2-methoxyethoxy)phenyl)amino)-1,3-dimethyl-1,3-dihydro-2H-benzo[d] imidazol-2-one] | 0.1 to 100
11 | CC1CN(c2ccc(Nc3ccc4c(c3)OCC(=O)N4C)cc2N(C)C)CC(C)O1 (stereo not drawn) [Compound 20, 7-((3-(dimethylamino)-4-(2,6-dimethylmorpholino)phenyl)amino)-4-methyl-2H-benzo[b][1,4]oxazin-3(4H)-one] | 0.1 to 100
12 | CN(C)c1cccc(Nc2ccc3c(c2)n(C)c(=O)n3C)c1 [Compound 308, 5-((3-(dimethylamino)phenyl)amino)-1,3-dimethyl-1,3-dihydro-2H-benzo[d]imidazol-2-one] | 0.1 to 100
13 | CN1C(=O)COc2cc(Nc3ccc4c(c3)C(C)(C)CC4(C)C)ccc21 [Compound 39, 4-methyl-7-((1,1,3,3-tetramethyl-2,3-dihydro-1H-inden-5-yl)amino)-2H-benzo[b][1,4]oxazin-3(4H)-one] | 100 to 1000
14 | COc1cc(N2CCC(C(F)(F)F)CC2)ccc1Nc1ccc2c(c1)OCC(=O)N2C [Compound 90, 7-((2-methoxy-4-(4-(trifluoromethyl)piperidin-1-yl)phenyl)amino)-4-methyl-2H-benzo[b][1,4]oxazin-3(4H)-one] | 0.1 to 100
15 | CNc1cc(Nc2ccc3c(c2)OCC(=O)N3C)ccc1N1CC(C)OC(C)C1 (stereo not drawn) [Compound 19, 7-((4-(2,6-dimethylmorpholino)-3-(methylamino)phenyl)amino)-4-methyl-2H-benzo[b][1,4]oxazin-3(4H)-one] | 0.1 to 100
16 | Cn1c(=O)n(C)c2cc(Nc3ccc(N4CCC(F)CC4)cc3)ccc21 [Compound 299, 5-((4-(4-fluoropiperidin-1-yl)phenyl)amino)-1,3-dimethyl-1,3-dihydro-2H-benzo[d]imidazol-2-one] | 0.1 to 100
17 | CC1CCN(c2ccc(Nc3cc(Cl)c4c(c3)CN(C(=O)C(F)(F)F)C4)cc2)CC1 [Compound 253, 1-(4-chloro-6-((4-(4-methylpiperidin-1-yl)phenyl)amino)isoindolin-2-yl)-2,2,2-trifluoroethan-1-one] | 0.1 to 100
18 | NCCc1cc(=O)oc2cc(Nc3ccc(N4CCC(C(F)(F)F)CC4)cc3)ccc12 [Compound 122, 4-(2-aminoethyl)-7-((4-(4-(trifluoromethyl)piperidin-1-yl)phenyl)amino)-2H-chromen-2-one] | 0.1 to 100
19 | CC1CCN(c2ccc(Nc3cc4c(c([N+](=O)[O-])c3)CN(C(=O)C(F)(F)F)C4)cc2)CC1 [Compound 255, 2,2,2-trifluoro-1-(6-((4-(4-methylpiperidin-1-yl)phenyl)amino)-4-nitroisoindolin-2-yl)ethan-1-one] | 0.1 to 100
20 | CC(C)(C)N1Cc2cc(Nc3ccc(N4CCC(C(F)(F)F)CC4)cc3)ccc2C1=O [Compound 197, 2-(tert-butyl)-5-((4-(4-(trifluoromethyl)piperidin-1-yl)phenyl)amino) isoindolin-1-one] | 0.1 to 100
21 | CN1C(=O)COc2cc(Nc3ccc(N4CC(C)(C)OC(C)(C)C4)cc3)ccc21 [Compound 93, 4-methyl-7-((4-(2,2,6,6-tetramethylmorpholino)phenyl)amino)-2H-benzo[b][1,4]oxazin-3(4H)-one] | 0.1 to 100
22 | Cc1cc(N2CC(C)OC(C)C2)ccc1Nc1ccc2c(cnn2C)c1 (stereo not drawn) [Compound 437, N-(4-(2,6-dimethylmorpholino)-2-methylphenyl)-1-methyl-1H-indazol-5-amine] | 0.1 to 100
23 | CCn1c2cc(Nc3ccc(N4CCC(C(F)(F)F)CC4)cc3)ccc2c(=O)n1C [Compound 218, 1-ethyl-2-methyl-6-((4-(4-(trifluoromethyl)piperidin-1-yl)phenyl)amino)-1,2-dihydro-3H-indazol-3-one] | 0.1 to 100
24 | COc1ccc(C)cc1Nc1ccc2c(c1)CN(C)C2=O [Compound 231, 5-((2-methoxy-5-methylphenyl)amino)-2-methylisoindolin-1-one] | 0.1 to 100
25 | CCn1c(=O)cnc2cc(Nc3ccc(N4CCC(C(F)(F)F)CC4)cc3)ccc21 [Compound 116, 1-ethyl-6-((4-(4-(trifluoromethyl)piperidin-1-yl)phenyl)amino) quinoxalin-2(1H)-one] | 0.1 to 100
26 | Cn1c(=O)oc2cc(Nc3ccc(N4CC5(CCC5)C4)cc3)ccc21 [Compound 327, 6-((4-(2-azaspiro[3.3]heptan-2-yl)phenyl)amino)-3-methylbenzo[d]oxazol-2(3H)-one] | 0.1 to 100
27 | CCN1Cc2ccc(Nc3ccc(N4CCC(F)(F)CC4)cc3)cc2C1 [Compound 167, N-(4-(4,4-difluoropiperidin-1-yl)phenyl)-2-ethylisoindolin-5-amine] | 0.1 to 100
28 | CN1Cc2cc(Nc3ccc(N4CC(C)(C)C4)cc3)ccc2C1=O [Compound 223, 5-((4-(3,3-dimethylazetidin-1-yl)phenyl)amino)-2-methylisoindolin-1-one] | 0.1 to 100

same assay, conditions: Homo sapiens; HT-1080 cells treated with RSL3; 3-fold, 10-point dilution, 1.1 μM highest concentration; Table 3; read-out: EC50 (nM), ferroptosis inhibitory activity

Row | Compound | EC50 [nM]
29 | Cc1cc(N2CC(C)(F)C2)ccc1Nc1ccc2c(c1)OCCC(=O)N2 [Compound 623] | 0.1 to 100
30 | Cc1cc(N2CCC(C(F)(F)F)CC2)ccc1Nc1ccc2c(c1)CC(N)C(=O)N2 (stereo not drawn) [Compound 598, 3-amino-6-((2-methyl-4-(4-(trifluoromethyl)piperidin-1-yl)phenyl)amino)-3,4-dihydroquinolin-2(1H)-one] | 0.1 to 100
31 | Cc1cc(N2CC(OC(F)(F)F)C2)ccc1Nc1ccc2c(c1)OCCC(=O)N2 [Compound 614, 8-((2-methyl-4-(3-(trifluoromethoxy)azetidin-1-yl)phenyl)amino)-2,3-dihydrobenzo[b][1,4]oxazepin-4(5H)-one] | 0.1 to 100
32 | Cc1cc(N2CCC(C(F)(F)F)CC2)ccc1Nc1ccc2[nH]c(=O)oc2c1 [Compound 496, 6-((2-methyl-4-(4-(trifluoromethyl)piperidin-1-yl)phenyl)amino) benzo[d]oxazol-2(3H)-one] | 0.1 to 100
33 | Cc1cc(N2CCC(F)(F)CC2)ccc1Nc1ccc2c(c1)OCC(=O)N2 [Compound 525, 7-((4-(4,4-difluoropiperidin-1-yl)-2-methylphenyl)amino)-2H-benzo[b][1,4]oxazin-3(4H)-one] | 0.1 to 100
34 | Cc1cc(N2CC(C)OC(C)C2)ccc1Nc1ccc2c(c1)CCNC2 (stereo not drawn) [Compound 528, N-(4-(2,6-dimethylmorpholino)-2-methylphenyl)-1,2,3,4-tetrahydroisoquinolin-6-amine] | 0.1 to 100
35 | Cc1cc(N2CCC(C(F)(F)F)CC2)ccc1Nc1ccc2oc(=O)[nH]c2c1 [Compound 467, 5-((2-methyl-4-(4-(trifluoromethyl)piperidin-1-yl)phenyl)amino) benzo[d]oxazol-2(3H)-one] | 0.1 to 100
36 | CN1C(=O)COc2cc(N(C)c3ccc(N4CCC(C(F)(F)F)CC4)cc3)ccc21 [Compound 532, 4-methyl-7-(methyl(4-(4-(trifluoromethyl)piperidin-1-yl)phenyl)amino)-2H-benzo[b][1,4]oxazin-3(4H)-one] | 100 to 1000
37 | CC(C)(O)C1CCN(c2ccc(Nc3ccc4c(c3)OCC(=O)N4)cc2)CC1 [Compound 543, 7-((4-(4-(2-hydroxypropan-2-yl)piperidin-1-yl)phenyl)amino)-2H-benzo[b][1,4]oxazin-3(4H)-on] | 0.1 to 100
38 | CCC1CN(c2ccc(Nc3ccc4c(c3)CNC(=O)N4)c(C)n2)CCO1 (stereo not drawn) [Compound 573, 6-{[6-(2-ethylmorpholin-4-yl)-2-methylpyridin-3-yl]amino}-3,4-dihydro-1H-quinazolin-2-one] | 0.1 to 100
39 | Cc1cc(N2CC(F)(F)C2)ccc1Nc1ccc2c(c1)OCC(=O)N2 [Compound 576, 7-((4-(3,3-difluoroazetidin-1-yl)-2-methylphenyl)amino)-2H-benzo[b][1,4]oxazin-3(4H)-one] | 0.1 to 100
